Results on seven compounds are retold here after patent US10105357B2, “Indication of antibiotic drugs for preparation of cancer inhibition pharmaceutical composition” (LAUNX BIOMEDICAL CO., LTD., priority 2014, dated 2018).

Common to all, as to type: cell-based, human
In assay [1] the test system is HL-60 (Acute Promyelocytic Leukemia). As to the kind of experiment: Cell viability analysis, leukemia HL-60. The conditions noted are these: Homo sapiens.
Assay [2] has as its system HI650 (Lung Adenocarcinoma). Kind of assay: Cell viability analysis, lung cancer HI650. To be noted: Homo sapiens.
Assay [3] relates to AGS (Gastric Adenocarcinoma). Kind of assay: Cell viability analysis, gastric cancer AGS. The conditions noted are these: Homo sapiens.
For assay [4], the system named is MCF7 (Mammary Gland, Adenocarcinoma). As to the kind of experiment: Cell viability analysis, breast cancer MCF7. The conditions noted are these: Homo sapiens.
Assay [5] deals with HepG2 (Hepatocellular Carcinoma). Kind of assay: Cell viability analysis, hepatic cancer HepG2. To be noted: Homo sapiens.
The subject of assay [6] is PC3 (p53−) (Prostate Adenocarcinoma). Kind of assay: Cell viability analysis, prostate cancer PC3. To be noted: Homo sapiens.
In assay [7] the test system is HeLa (Cervix Adenocarcinoma). Kind of assay: Cell viability analysis, cervical cancer HeLa. To be noted: Homo sapiens, HeLa.
Assay [8] relates to TSGH-8301 (Urinary Bladder Carcinoma). As to the kind of experiment: Cell viability analysis, bladder cancer TSGH-8301. The conditions noted are these: Homo sapiens.
In assay [9] the test system is A375 (Amelanotic Melanoma). Kind of assay: Cell viability analysis, skin cancer A375. The conditions noted are these: Homo sapiens.
The subject of another assay is cancer cell lines. Kind of assay: Cell viability analysis (WST-1) on cancer cell lines. The conditions noted are these: drug 10 μM, 72 hours, WST-1; Table 3. (In general: Tetrazolium dyes change colour on reduction, which living cells bring about.)
Assay [10] concerns A549 (Lung Adenocarcinoma). As to the kind of experiment: Cell viability analysis, lung cancer A549. To be noted: Homo sapiens.
Assay [11] deals with MKN-45 (Gastric Adenocarcinoma). As to the kind of experiment: Cell viability analysis, gastric cancer MKN-45. The conditions noted are these: Homo sapiens.
In assay [12] the test system is LoVo (Colorectal Adenocarcinoma). As to the kind of experiment: Cell viability analysis, colon cancer LoVo. To be noted: Homo sapiens, LoVo.
The mark [13] stands for this setting: HL-60, 72 h, read-out: cell viability (survival rate), HL-60, drug 10 μM, 72 hours, WST-1, OD450 nm.
Where [14] appears, read: NCI-H1650, 72 h, read-out: cell viability (survival rate), H1650, drug 10 μM, 72 hours, WST-1, OD450 nm.
The mark [15] stands for this setting: 72 h, read-out: cell viability (survival rate), AGS, drug 10 μM, 72 hours, WST-1, OD450 nm.
[16] abbreviates: MCF7, 72 h, read-out: cell viability (survival rate), MCF7, drug 10 μM, 72 hours, WST-1, OD450 nm.
Where [17] appears, read: HepG2, 72 h, read-out: cell viability (survival rate), HepG2, drug 10 μM, 72 hours, WST-1, OD450 nm.
Setting [18] is: 72 h, read-out: cell viability (survival rate), PC3, drug 10 μM, 72 hours, WST-1, OD450 nm.
The mark [19] stands for this setting: 72 h, read-out: cell viability (survival rate), HeLa, drug 10 μM, 72 hours, WST-1, OD450 nm.
The mark [20] stands for this setting: 72 h, read-out: cell viability (survival rate), TSGH, drug 10 μM, 72 hours, WST-1, OD450 nm.
Setting [21] is: A-375, 72 h, read-out: cell viability (survival rate), A375, drug 10 μM, 72 hours, WST-1, OD450 nm.
Setting [22] is: A549, 72 h, read-out: cell viability (survival rate), A549, drug 10 μM, 72 hours, WST-1, OD450 nm.
[23] abbreviates: MKN-45, 72 h, read-out: cell viability (survival rate), MKN-45, drug 10 μM, 72 hours, WST-1, OD450 nm.
[24] abbreviates: 72 h, read-out: cell viability (survival rate), LoVo, drug 10 μM, 72 hours, WST-1, OD450 nm.
The mark [25] stands for this setting: HL-60, 72 h, drug 10 μM, 72 hours, WST-1, OD450 nm, read-out: cell viability (survival rate), HL-60.
[26] abbreviates: NCI-H1650, 72 h, drug 10 μM, 72 hours, WST-1, OD450 nm, read-out: cell viability (survival rate), H1650.
Setting [27] is: 72 h, drug 10 μM, 72 hours, WST-1, OD450 nm, read-out: cell viability (survival rate), AGS.
Setting [28] is: MCF7, 72 h, drug 10 μM, 72 hours, WST-1, OD450 nm, read-out: cell viability (survival rate), MCF7.
[29] abbreviates: HepG2, 72 h, drug 10 μM, 72 hours, WST-1, OD450 nm, read-out: cell viability (survival rate), HepG2.
Setting [30] is: 72 h, drug 10 μM, 72 hours, WST-1, OD450 nm, read-out: cell viability (survival rate), PC3.
The mark [31] stands for this setting: 72 h, drug 10 μM, 72 hours, WST-1, OD450 nm, read-out: cell viability (survival rate), HeLa.
[32] abbreviates: 72 h, drug 10 μM, 72 hours, WST-1, OD450 nm, read-out: cell viability (survival rate), TSGH.
Where [33] appears, read: A-375, 72 h, drug 10 μM, 72 hours, WST-1, OD450 nm, read-out: cell viability (survival rate), A375.
Where [34] appears, read: A549, 72 h, drug 10 μM, 72 hours, WST-1, OD450 nm, read-out: cell viability (survival rate), A549.
Where [35] appears, read: MKN-45, 72 h, drug 10 μM, 72 hours, WST-1, OD450 nm, read-out: cell viability (survival rate), MKN-45.

Counter-ions that a name gives are not always drawn. Like-named read-outs stand apart in the source and are kept apart here.

In general, viability refers to a read-out of living cells in per cent, often relative to untreated cells. As for `O=C(NC(Cc1cc(=O)[nH]c2ccccc12)C(=O)O)c1ccc(Cl)cc1` (stereo not shown) [Rebamipide], the viability at 10 µM was determined as 100% in assay [1] (setting [13]); 80.4% in assay [2] (setting [14]); 89.6% in assay [3] (setting [15]); 39.1% in assay [4] (setting [16]); 95.3% in [5] (setting [17]); 82.2% in [6] (setting [18]). Also, the viability at 10 µM in assay [7] (setting [19]) is 77.4%; in [8] (setting [20]), 105%; in [9] (setting [21]), 81.1%; in [10] (setting [22]), 28%; in assay [11] (setting [23]), 97.4%; in assay [12] (setting [24]), 84.9%. Moreover, in the assay on cancer cell lines, the “inhibition effect on different cancer cell lines” value is “significant inhibition effect”.

For `CO[C@H]1/C=C/O[C@@]2(C)Oc3c(C)c(O)c4c(c3C2=O)C2=NC3(CCN(CC(C)C)CC3)NC2=C(NC(=O)/C(C)=C\C=C\[C@H](C)[C@H](O)[C@@H](C)[C@@H](O)[C@@H](C)[C@H](OC(C)=O)[C@@H]1C)C4=O` [Rifabutin (Mycobutin), Rifabutin], the viability at 10 µM in assay [1] (setting [13]) was 100%; in [2] (setting [14]), 88.2%; in assay [3] (setting [15]), 115%; in [4] (setting [16]), 48.8%; in [5] (setting [17]), 148%; in assay [6] (setting [18]) it was 72.6%. The viability at 10 µM in assay [7] (setting [19]) turned out to be 52.8%; in assay [8] (setting [20]) it was 82.5%; in assay [9] (setting [21]) it was 84%; in assay [10] (setting [22]), 53.1%; in assay [11] (setting [23]), 62.4%; in assay [12] (setting [24]), 104%. For the same compound, the “inhibition effect on different cancer cell lines” value in the assay with cancer cell lines is “significant inhibition effect”.

Regarding `CO[C@H]1/C=C/O[C@@]2(C)Oc3c(C)c(O)c4c(O)c(c(/C=N/N5CCN(C)CC5)c(O)c4c3C2=O)NC(=O)/C(C)=C\C=C\[C@H](C)[C@H](O)[C@@H](C)[C@@H](O)[C@@H](C)[C@H](OC(C)=O)[C@@H]1C` [Rifampin (Rifadin, Rimactane), Rifampin], the viability at 10 µM in assay [1] (setting [25]) worked out at 105%; in assay [2] (setting [26]), 89.1%; in assay [3] (setting [27]) it was 111%; in assay [4] (setting [28]), 39.7%; in [5] (setting [29]), 98.5%; in assay [6] (setting [30]) it was 69.9%. The viability at 10 µM in assay [7] (setting [31]) came to 58.8%; in assay [8] (setting [32]), 108%; in assay [9] (setting [33]), 61.6%; in assay [10] (setting [34]) it was 45.2%; in [11] (setting [35]), 61.1%; in [12] (setting [24]), 83.9%. In addition, the “inhibition effect on different cancer cell lines” value in the assay with cancer cell lines is recorded as “significant inhibition effect”.

Regarding `CC(N)C12CC3CC(CC(C3)C1)C2` (stereo not shown) [Rimantadine (Flumadine), Rimantadine], the viability at 10 µM stood at 107% in assay [1] (setting [25]); 96.9% in assay [2] (setting [26]); 90.8% in assay [3] (setting [27]); 97.1% in [4] (setting [28]); 87.7% in [5] (setting [29]); 91.3% in assay [6] (setting [30]). For the same compound, the viability at 10 µM was 71.1% in [7] (setting [31]); 126% in [8] (setting [32]); 70.3% in [9] (setting [33]); 111% in [10] (setting [34]); 82.3% in [11] (setting [35]); 95.7% in [12] (setting [24]). Besides, the “inhibition effect on different cancer cell lines” value in the assay with cancer cell lines is on record as “significant inhibition effect”.

Turning to `CC(NCCc1ccc(O)cc1)C(O)c1ccc(O)cc1` (stereo not shown) [Ritodrine hydrochloride (Yutopar), Ritodrine hydrochloride], the viability at 10 µM in [1] (setting [13]) is 86%; in assay [2] (setting [14]), 96.4%; in [3] (setting [15]), 80.1%; in [4] (setting [16]) it was 86.5%; in [5] (setting [17]), 92.8%; in assay [6] (setting [18]), 113%. Besides, the viability at 10 µM came out at 133% in assay [7] (setting [19]); 64.4% in assay [8] (setting [20]); 87.4% in [9] (setting [21]); 95.5% in [10] (setting [22]); 97.2% in [11] (setting [23]); 104% in [12] (setting [24]). In addition, in the assay on cancer cell lines, the “inhibition effect on different cancer cell lines” value is recorded as “significant inhibition effect”.

Consider `O=C(Nc1ccccc1)c1ccccc1O` [Salicylanilide], for which the viability at 10 µM in assay [1] (HL-60, drug 10 μM, 72 hours, WST-1, OD450 nm, read-out: cell viability (survival rate), HL-60) stood at 71.1%; in assay [2] (NCI-H1650, drug 10 μM, 72 hours, WST-1, OD450 nm, read-out: cell viability (survival rate), H1650) it was 80.5%; in [3] (drug 10 μM, 72 hours, WST-1, OD450 nm, read-out: cell viability (survival rate), AGS), 77.8%; in assay [4] (MCF7, drug 10 μM, 72 hours, WST-1, OD450 nm, read-out: cell viability (survival rate), MCF7), 106%; in assay [5] (HepG2, drug 10 μM, 72 hours, WST-1, OD450 nm, read-out: cell viability (survival rate), HepG2) it was 97.2%; in assay [6] (drug 10 μM, 72 hours, WST-1, OD450 nm, read-out: cell viability (survival rate), PC3), 89.7%. In addition, the viability at 10 µM in [7] (drug 10 μM, 72 hours, WST-1, OD450 nm, read-out: cell viability (survival rate), HeLa) was 118%; in assay [8] (drug 10 μM, 72 hours, WST-1, OD450 nm, read-out: cell viability (survival rate), TSGH), 108%; in assay [9] (A-375, drug 10 μM, 72 hours, WST-1, OD450 nm, read-out: cell viability (survival rate), A375), 92.8%; in [10] (A549, drug 10 μM, 72 hours, WST-1, OD450 nm, read-out: cell viability (survival rate), A549), 62.1%; in assay [11] (MKN-45, drug 10 μM, 72 hours, WST-1, OD450 nm, read-out: cell viability (survival rate), MKN-45), 83.5%; in assay [12] (drug 10 μM, 72 hours, WST-1, OD450 nm, read-out: cell viability (survival rate), LoVo) it was 86.2%. In addition, the “inhibition effect on different cancer cell lines” value in the assay on cancer cell lines was “significant inhibition effect”.

Consider `O=C(O)c1cn(-c2ccc(F)cc2)c2cc(N3CCNCC3)c(F)cc2c1=O` [Sarafloxacin HCl], for which the viability at 10 µM in assay [1] (setting [25]) was found to be 112%; in [2] (setting [26]), 58.9%; in assay [3] (setting [27]), 88%; in [4] (setting [28]), 107%; in [5] (setting [29]), 91.1%; in assay [6] (setting [30]) it was 80.9%. Besides, the viability at 10 µM stood at 81% in assay [7] (setting [31]); 122% in [8] (setting [32]); 97.8% in [9] (setting [33]); 98.6% in [10] (setting [34]); 75.3% in [11] (setting [35]); 106% in assay [12] (setting [24]). Also, the “inhibition effect on different cancer cell lines” value with cancer cell lines is listed as “significant inhibition effect”.
